Four substances from patent US12709645B2, “Targeting gene amplification in cancer using triplex formation as a therapeutic strategy” (Yale University, priority 2018, dated 2026) can be followed below.

Data set [1] relates to BT474 human breast cancer tumors. The data set is described as follows: BT474 breast cancer subcutaneous xenograft model. The format is in vivo, athymic nude mice. As to conditions: for tumor growth relative to controls / tumor tripling time post-initial dose: 20 mg/kg IP, 3 doses over 7 days. The protocol: Six to seven-week old female BALB/c athymic, ovariectomized nude mice (Harlan Sprague-Dawley) were implanted with 0.72 mg, 60-day release 17β-estradiol pellets (Innovative Research). […] Tumor volumes in each group were then monitored and mice were sacrificed when tumor volumes reached 1000 mm^3. Error bars represent standard error of the mean. Tumor tripling time was calculated as the time required for tumors to increase in volume […] over baseline (defined as tumor volume before administration of dose on first day of treatment). Harvested tumors were fixed in 10% neutral buffered formalin and processed by Yale Pathology Tissue Services for H&E, Caspase 3, HER2, and Ki67. Images were taken at 4× magnification.

Data set [2] relates to BT474 cells. The data set is described as follows: Neutral comet assay in BT474 cells. The format is cell-based, human. As to conditions: 24 hours post-treatment. The protocol: (§1) Cells were seeded in six-well plates at a density of 2-4×10^5 cells per well the day before transfection. Cells were transfected with 2 μg of HER2-targeted TFO or MIX24 using Oligofectamine (Invitrogen) or Dharmafect-1 (Dharmacon) transfection reagent. Transfection was performed as per manufacturer's instructions. siRNA directed against p53, XPD and non-target controls (ON-Target plus SMARTpool reagents; (Dharmacon) were transfected into BT474 cells using Dharmafect-1 transfection reagent (Dharmacon) according to the manufacturers instructions. Western blot analysis was used to confirm knockdown of protein.
(§2) Comet Assay. Neutral cornet assays were performed 24 h post TFO-transfection as per the manufacturers instructions (Trevigen) with the adjustment of 3.5×10^5 cells/ml for each single cell suspension and 30 minutes electrophoresis. Comets were visualized using an Axiovert 200 microscope and analyzed with Autocomet software. Approximately 100-200 comets were analyzed per experiment. Results were expressed as mean tail moment.

In data set [3] the test system is cell lines containing multiple copies of the HER2 gene. The data set can be described thus: Neutral comet assay in breast cancer cell lines. As to conditions: 24 h after treatment. The format is cell-based, human. The protocol:
(§3) Cell Lines and Transfections. Human breast cancer cell lines were obtained from ATCC and routinely tested for mycoplasma. The human cell lines, MDA-MB-453, SKBR3, and BT474 are HER2-amplified breast cancer cell lines. BT20 and MCF7 cells are non-amplified breast cancer cell lines. MCF-10A is a non-tumorigenic breast epithelial cell line. PEO1 and SKOV3 are human ovarian cancer cell lines with HER2 gene amplification.
as §1
Comet Assay. […] Comets were visualized using an Axiovert 200 microscope and analyzed with Autocomet software. Approximately 100-200 comets were analyzed per experiment. Results were expressed as mean tail moment.

For data set [4], the system named is BT474 cells. The data set is described as follows: Immunofluorescence of γH2AX and 53BP1 foci in BT474 cells. The data set is classed as cell-based, human. The method, then:
(§4) Immunofluorescence. Cells were seeded onto UV-irradiated coverslips and were treated for 24 h with HER2-205, MIX24, or a mock transfection. Cells were processed 24 h post-transfection, fixed with 4% formaldehyde and then incubated with ice-cold 100% methanol for 20 minutes followed by a methanol and acetone solution (1:1) for 20 minutes each at −20° C. After washing with PBS, cells were blocked with blocking buffer (4% BSA, 0.2% Triton X-100 in PBS) for 30 minutes and then incubated overnight with the following primary antibodies: γH2AX (1:500; Cell Signaling or Millipore) and 53BP1 (1:100; Santa Cruz) in blocking buffer at 4° C. After three washes, cells were incubated with secondary antibodies Alexa 488 F(ab′)2 fragment goat anti-rabbit IgG or Alexa 568 F(ab′)2 fragment goat anti-mouse IgG (1:1000; Molecular Probes) for 1 h at room temperature. Cells were then mounted on microscope glass slides with anti-fade mounting media containing DAPI (Life Technologies), and pictures were taken with a Leica SP5 microscope. Immunofluorescence experiments were repeated for validation.

The test system of a further data set is HER2-positive cell lines. The data set is described as follows: Annexin-V apoptosis analysis in breast cancer cell lines. The format is cell-based, human. As to conditions: 24 h post TFO-treatment. The method, then:
as §3
(§5) Apoptosis analysis. Cells (2−4×10^5) were seeded in six-well plates 24 h prior to treatment with MIX24, HER2-1 or HER2-205 (2 μg). Post-treatment analysis was performed using the Annexin V-FITC/PI apoptosis detection kit (BD Pharmingen) according to the manufacturers protocol. Apoptotic frequency was calculated as the combined percentage of early and late apoptotic cells. Data analysis was performed using Flow-Jo software.

Data set [5] has as its system PE01 and SKOV3 cells. The data set can be described thus: Immunofluorescence of γH2AX foci in ovarian cancer cells. The data set is classed as cell-based, human. As to conditions: 24 h. The method, then:
as §4

Data set [6] relates to PE01 and SKOV3 cells. The data set can be described thus: Neutral comet assay in ovarian cancer cells. The format is cell-based, human. The method, then: as §2
Data set [7] deals with PE01 and SKOV3 cells. The data set can be described thus: Monolayer growth survival assay in ovarian cancer cells. The data set is classed as cell-based, human. As to conditions: 72 h after treatment. The protocol: Survival Assay. Cell survival seas assayed by visualization of monolayer growth. Briefly, cells were plated at a defined density in 6 or 12-well dishes and treated with either transfection reagent alone (mock), MIX24, or HER2-205 as previously described. Monolayers were visualized by staining cells with crystal violet 72 h post-treatment.

Data set [8] relates to PE01 and SKOV3 cells. The data set can be described thus: Apoptosis in ovarian cancer cells (Annexin V, cleaved PARP). The data set is classed as cell-based, human. As to conditions: Annexin V 48 h post-treatment. The method, then: (§6) Western blotting. Whole cell lysates were prepared from floating and adherent cells using RIPA buffer according to standard protocols. Total protein (30-50 μg per sample) was resolved by SDS-PAGE. Proteins were detected by a standard immunoblot protocol using the following primary antibodies: cleaved PARP, cleaved caspase 3, γH2AX, XPD, p53, HER2, pHER2 ([…]), HER3, pHER3 (Y1289), HER4, pHER4 (Y1284), EGFR, pEGFR (Y1068), Chk1, pChk1(S345), pChk2 (T68), and Chk2 (Cell Signaling Technology); pH2AX (tyrosine 142; EMD Millipore); tubulin (clone B-512; Sigma), and GAPDH-HRP (Proteintech). Each experiment was repeated with independent sample preparation a minimum of three times, and representative western blots are shown.
as §5

In a further data set the test system is Chk1. The data set can be described thus: Western blot of DNA damage response protein phosphorylation. The data set is classed as cell-based, human. As to conditions: HER2-amplified vs normal copy number cells. The protocol:
as §6

Data set [9] has as its system BT474 cells. The data set can be described thus: Flow cytometry of phosphorylated ATM. The format is cell-based, human. As to conditions: 24 h. The method, then:
Flow Cytometry. BT474 cells were collected 24 h following treatment with either MIX24 HER2-205. After washing with PBS, cells were incubated with 1% paraformaldehyde for 15 minutes on ice. Cells were then fixed with cold 70% ethanol at −20° C. for 2 h or kept for up to 2 weeks until further analysis. Cells were centrifuged and rinsed with PBS, blocked with PBST buffer (1% w/v bovine serum albumin and 0.2% v/v Triton X-100 in PBS) for 15 minutes on ice, followed by another PBS rinse. Cells were first incubated with anti-phospho-ATM (S1981, EMD Millipore) in PBST at 1:100 dilution for 1 h at room temperature. Cells were rinsed with PBST and incubated with anti-rabbit IgG Fab2 Alexa 488 (Molecular Probes) at 1:100 dilution at room temperature for 1 h, and then rinsed with PBST. Acquisition of labeled cells and analysis of data was completed using a flow cytometer (FACS Calibur) and FlowJo software respectively.
In general terms: Flow cytometry measures light scatter and fluorescence of single cells or particles in a stream.

The test system of data set [10] is BT474 cells. The data set can be described thus: Apoptosis after XPD knockdown in BT474 cells (Western blot). As to conditions: siRNA XPD knockdown. The data set is classed as cell-based, human. The method, then: as §1, §6
Background: A western blot detects proteins with antibodies after separation by electrophoresis.

Data set [11] has as its system HER2. The data set is described as follows: HER2 gene expression by RT-PCR. The data set is classed as cell-based, human. As to conditions: non-amplified and amplified breast cancer cell lines. The protocol: Gene Expression. RNA was extracted from snap-frozen cells using the RNeasy Kit (Qiagen) per the manufacturers protocol. cDNA synthesis was carried out with 10 μg of RNA via reverse transcription reactions and the High-Capacity cDNA Reverse Transcription Kit (ThermoFisher Scientific). cDNA (10 ng) was then combined with TaqMan Universal PCR master mix (20 μl) (Applied Biosystem) and primers specific to HER2 (HER2, Hs01001580_m1, ThermoFisher Scientific) or the internal control, β-actin (Hs99999903_m1, ThermoFisher Scientific). qRT-PCR was performed in 96-well optical plates in triplicate for each sample. Briefly, reactions were performed at 50° C. for 2 minutes, followed by 95° C. for 10 minutes. Amplification of the target or control gene was carried out with 40 cycles of the two-step reaction, which included 95° C. for 15 seconds and 1 minute at 60° C. β-actin expression levels were used to normalize the difference between cDNA levels in different samples. Relative expression levels were calculated using the 2(-Delta Delta C(T)) method.

For data set [12], the system named is HER2. The data set is described as follows: Western blot of total HER2 protein and phosphorylation levels. The data set is classed as cell-based, human. As to conditions: HER2-positive cells compared to control samples. The protocol: as §6
Data set [13] concerns SKOV3 ovarian cancer xenografts. The data set can be described thus: SKOV3 ovarian cancer subcutaneous xenograft model. As to conditions: HER2-205 20 mg/kg vs cisplatin 10 mg/kg, IP.
Procedure: To establish an ovarian cancer model, female BALB/c athymic nude mice were injected subcutaneously in the flank with 5×10^6 SKOV3 cells suspended in 100 μl equal volume of media and Matrigel. Mice bearing a tumor of about 100 mm^3 in volume were randomly divided into three treatment groups: vehicle (PBS), n=5; HER2-targeted TFO, HER2-205, n=5; and cisplatin, n=7. […] Tumor volumes were monitored and tumor tripling times were calculated as described above.
Setting [14] is: 24 h after single dose 20 mg/kg.

On to “MIX24: control mixed-sequence oligonucleotide, 5′-AGTCAGTCAGTCAGTCAGTCAGTC-3′ (DNA AGTCAGTCAGTCAGTCAGTCAGTC; listed as DNA, chemistry not given here) [reference compound]”, for which, in data set [1], the “tumor growth relative to controls” value was “no impact” and the “tumor tripling time post-initial dose” value came to 16.3 ± 6.6 days.

As for “HER2-40118: TFO targeting intron 19 of the HER2 gene, 5′-GGGGGAAATAGGGAGGGTGGGG-3′ (triplex-forming oligonucleotide, chemistry not given here, further chemistry not given here)”, in the data set on BT474 cells [2], the “DSBs as indicated by DNA tail moment” value is on record as “significantly, more DSBs”.

Consider “HER2-5922-2: TFO targeting intron 2 of the HER2 gene, 5′-GGGAAAGAGGAGGGGGTGAGAGGAGTGGGG-3′ (triplex-forming oligonucleotide, chemistry not given here, further chemistry not given here)”, for which the “DSBs as indicated by DNA tail moment” value with BT474 cells [2] is listed as “significantly, more DSBs”.

With “HER2-205: TFO binding a polypurine sequence in the HER2 coding region, 5′-GAGGAGGAGTGGGAGAATGGGGGG-3′ (DNA GAGGAGGAGTGGGAGAATGGGGGG; DNA, backbone not given here)”, the “DSBs as indicated by DNA tail moment” value in data set [3] is on record as “significantly more DSBs”. The “DSBs as indicated by DNA tail moment” value in the data set on BT474 cells [2] is reported as “significantly, more DSBs”. Moreover, the “colocalization of γH2AX and 53BP1, percent of cells” value in the data set on BT474 cells [4] (24 h) is 49%. Moreover, the “γH2AX and 53BP1 foci compared to MIX24” value with BT474 cells [4] (24 h post-treatment) is given as “substantially increased”. Further, the “percentage of apoptotic cells (Annexin-V)” value with HER2-positive cell lines is given as “higher percentage of apoptotic cells than that with HER2-1”. In the data set on PE01 and SKOV3 cells [5], the γH2AX foci entry was “increased”. Moreover, the DNA tail moments result with PE01 and SKOV3 cells [6] is “increased”. Besides, the “cell viability (monolayer growth)” value in the data set on PE01 and SKOV3 cells [7] was “reduced cell viability”. The apoptosis entry in the data set with PE01 and SKOV3 cells [8] is “activated apoptosis”. Also, in data set [1], the “tumor growth relative to controls” value was “suppressed tumor growth to a significantly greater degree than the controls” and the “tumor tripling time post-initial dose” value was 29 ± 5.7 days. For the same substance, in data set [1] (setting [14]), the “proliferation by Ki67 staining in tumor sections” value is reported as “decreased proliferation” and the “tumor cell apoptosis (cleaved caspase 3) in tumor sections” value is recorded as “Tumor cell apoptosis”. Besides, in [1] (HER2-positive breast cancer xenografts), the “reduction in tumor volumes compared to controls” value amounted to 52%. For the same substance, the “Chk1 phosphorylation at serine 345” value in the data set on Chk1 is “observed after HER2-205 treatment in the HER2-amplified cells and not in the cells with normal HER2 gene copy numbers”. Besides, in the data set with BT474 cells [9], the pATM positive cells entry is on record as “increase”. In the data set with BT474 cells [10], the “phosphorylation of Y142 in H2AX and activation of apoptosis” value is listed as “requirement for XPD”. Moreover, the HER2 gene expression result in the data set on HER2 [11] is reported as “not significantly affected”. Besides, in the data set on HER2 [12], the “total and activated HER2 levels” value was “remain the same”. Moreover, the “survival (tumors smaller than three times baseline) compared with cisplatin” value in data set [13] (3 doses) was “substantial survival advantage”. The “average tumor volume smaller than in cisplatin-treated mice” value in data set [13] (3 doses once per week) was determined as 49%.
